{"source": "patent US8034561B2", "about": "“HIN-1, a tumor suppressor gene” (Dana-Farber Cancer Institute, Inc., priority 2001, dated 2011)", "key": {"hHIN-1 promoter region": {"test_system": "hHIN-1 promoter region", "assay": "Extent of hHIN-1 promoter methylation by sequence analysis of bisulfite treated genomic DNA", "assay_type": "cell-based, human", "settings": "ZR-75-1 cells treated with 25 μM 5aza-C vs not treated, bisulfite sequencing", "text": "hHIN-1 methylation, loss of heterozygocity and mutation analysis. Searching the draft of the human genome sequence with the hHIN-1 cDNA sequence identified a genomic clone (CTB-36B8) containing the entire hHIN-1 gene, the proximal promoter region of which contained an apparent CpG island. To determine the location of methylated cytosines, genomic DNA was extracted from the cells, bisulfite treated and purified as previously described [Herman et al. (1998) Proc. Natl. Acad. Sci. USA 95:6870-6875]. PCR amplification was performed using the following primers designed to amplify the coding strand (nucleotides −345 to +72) of bisulfite treated DNA: forward primer-5′-[…]-3′ (SEQ ID NO:9) and reverse primer-5′-[…]-3′ (SEQ ID NO:10). […] PCR amplifications were performed as described above; PCR fragments were analyzed on 3% agarose gels.\n(§1) To test for the consequence of promoter methylation on hHIN-1 expression, the effect of a DNA methyltransferase inhibitor (5-aza-2′-deoxycytidine; “5aza-C”) on hHIN-1 mRNA levels was analyzed. […] The expression of hHIN-1 mRNA was determined by RT-PCR analysis, while the extent of promoter methylation was evaluated by sequence analysis of bisulfite treated genomic DNA."}, "[1]": {"test_system": "breast cancer cell lines with no detectable expression of hHIN-1", "assay": "Effect of DNA methyltransferase inhibitor on hHIN-1 mRNA levels (RT-PCR)", "assay_type": "cell-based, human", "settings": "six breast cancer cell lines, 25 μM 5aza-C for three to ten days", "text": "Cell lines and tissue. BT-20, BT-474, BT-549, Hs578T, MCF-7, MDA-MB-231, MDA-MB-468, MDA-MB-435S, SK-BR-3, T47D, UACC-812, UACC-893, and ZR-75-1 breast cancer cell lines were obtained from the American Type Culture Collection (ATCC; Manassas, Va.). SUM-44, SUM-52, SUM-102, SUM149, SUM-159, SUM-185, SUM-190, SUM-225, SUM-229, and SUM-1315 cell lines were a generous gift of Dr. Steve Ethier (University of Michigan Medical Center). The HCC1937 BRCA1 minus cell line was obtained from Dr. Gail Tomlinson (University of Texas Southwestern Medical Center). The 21MT1, 21MT2, 21NT, and 21PT cell lines were obtained from Dr. Arthur Pardee (Dana-Farber Cancer Institute). Cells were grown in media recommended by the ATCC or by the establishing investigators. However, 48 hours prior to RNA extraction, all cell lines were switched to DMEM/F12 medium supplemented with 5% FBS in order to minimize gene expression differences due to culture conditions. […]\nas §1"}, "[2]": {"test_system": "primary human bronchial epithelial cells", "assay": "Retinoic acid-induced mucinous differentiation, RT-PCR of hHIN-1, MUC2 and Tgase I mRNA", "assay_type": "cell-based", "settings": "1 mM all-trans retinoic acid, 1 to 9 days", "description": "Primary cultures of human bronchial epithelial cells were purchased from Clonetics (Walkersville, Md.) and were cultured in the presence or absence of 1 mM all-trans retinoic acid essentially as previously described [Koo et al. (1999) Am. J. Respir. Cell Mol. Biol. 20:43-52].\nTo test this hypothesis, the expression of hHIN-1 mRNA by RT-PCR during retinoic acid-induced mucinous differentiation of primary human bronchial epithelial cells was analyzed (FIG. 13). Primary human bronchial epithelial cells underwent squamous epithelial differentiation and expressed squamous cell markers such as transglutaminase I (Tgase I) in the absence of all-trans retinoic acid (FIG. 13). […] J. Respir. Cell Mol. Biol. 20:43-52]. […] Such expression kinetics are consistent with a role for HIN-1 as an inducer of this process."}, "BT549 cells": {"test_system": "BT549 cells", "assay": "Colony assay after transfection with pCEP4 expression constructs", "assay_type": "cell-based, human", "settings": "stable transfectants selected with hygromycin for 2 weeks, crystal violet staining, compared to control pCEP4", "text": "Generation of hHIN-1 mammalian expression constructs and recombinant adenoviruses. […] For the generation of a recombinant adenovirus the hHIN-1 cDNA was PCR amplified and subcloned into the Kpn I-Xho I site of the pAd-Track-CMV adenoviral vector followed by recombination and adenovirus generation using the Ad-Easy™(Quantum Biotechnologies, Montreal, Canada) system [He et al. (1998) Proc. Natl. Acad. Sci. USA 95:2509-2514].\nColony assays, cell cycle analysis and western blot analysis. For colony assay experiments, cells in 100 mm plates were transfected with a mix of 42 μl of FuGene6 (Roche) and 21 μg of the indicated plasmid. 24 hours after transfection, 84% of the cells were plated into 2 T25 tissue culture flasks in medium without a selection drug. Twenty-four hours later the medium was replaced with selection medium containing hygromycin. Colonies were allowed to grow for 2 weeks after which they were visualized by crystal violet staining.\nIn order to investigate the effect of constitutive hHIN-1 expression on mammary cell growth, a mammalian expression construct containing hHIN-1 polypeptide encoding cDNA (pCEP4-HIN-1) was transfected into various breast cancer cell lines. Stable transfectants were selected in the presence of hygromycin for 2 weeks."}}}
{"molecule": "Nc1ncn([C@H]2C[C@H](O)[C@@H](CO)O2)c(=O)n1", "note": "[5aza-C, 5-aza-2′-deoxycytidine]", "values": [{"measurement": "extent of hHIN-1 promoter methylation", "setting": "hHIN-1 promoter region", "result": "decrease in the extent of promoter methylation"}, {"measurement": "expression of hHIN-1 mRNA", "setting": "[1]", "result": "re-expression of hHIN-1 mRNA in all six cell lines"}]}
{"molecule": "CC1=C(/C=C/C(C)=C/C=C/C(C)=C/C(=O)O)C(C)(C)CCC1", "note": "[retinoic acid, all-trans retinoic acid]", "values": [{"measurement": "expression of hHIN-1 mRNA", "setting": "[2]; RT-PCR, following retinoic acid treatment", "result": "correlated with the loss of a squamous marker (Tgase I) and preceded the induction of a marker for mucinous differentiation (MUC2)"}, {"measurement": "differentiation phenotype (MUC2 expression)", "setting": "[2]; air-interface culture", "result": "differentiated into mucinous cells"}]}
{"molecule": "hHIN-1: hHIN-1 polypeptide (SEQ ID NO:1), 104 amino acids, expressed from the pCEP4-HIN-1 mammalian expression construct (protein, listed as Homo sapiens) MKLAALLGLCVALSCSSARAFLVGSAKPVAQPVAALESAAEAGAGTLANPLGTLNPLKLLLSSLGIPVNHLIEGSQKCVAELGPQAVGAVKALKALLGALTVFG", "values": [{"measurement": "colony numbers / cell growth", "setting": "BT549 cells", "result": "dramatic decrease in colony numbers"}]}
